By IC50 is commonly meant the concentration that gives 50% inhibition.

These results are taken from patent EP0485217A2, “Hydantoin derivatives, and their use in preventing and treating diabetic complications and circulatory organ diseases” (priority 1990, dated 1992).

The test system of assay [1] is platelet aggregation. The assay is described as follows: In-vitro inhibition of platelet aggregation in platelet rich plasma. It is filed as cell-based, rat. As for the experimental part: Then, the residues were centrifuged to obtain a supernatant fluid in the form of platelet poor plasma (PPP for short). For measurement, an amount of PRP collected from two to four animals was pooled. The platelet aggregation test was carried out with NBS HEMA TRACER (Model PAT-60 made by Niko Bioscience Co., Ltd.). […] After 1-minute preincubation, 3 µl of the test compound were added and, one minute later, 30 µl of an aggregation inducer (collagen or ADP) were introduced. Added to a control group was the test compound together with 3 µl of dimethyl sulfoxide. Upon the addition of the aggregation inducer, a maximum transmittance change was read to find a platelet aggregation change in %.

For assay [2], the system named is platelet aggregation. The assay is described as follows: Ex-vivo inhibition of platelet aggregation after intravenous administration. It is filed as in vivo, rat. The note with it: inhibition relative to control, blood 5 minutes after dosing; for Collagen (10 μM): inducer collagen. As for the experimental part: The thus treated blood was centrifuged at 1500 rpm for 5 minutes to obtain a supernatant fluid in the form of PRP. The residues were then again centrifuged at 4°C and 3000 rpm for 10 minutes to obtain a supernatant fluid in the form of PPP. […] of PRP were put in a PRP cuvette having a stirrer bar with the transmittance set at 0%, while 300 µl of PPP were put in a PPP cuvette with the transmittance set at 100%. After 1-minute preincubation, 20 µl of an aggregation inducer (collagen or ADP) were introduced.
A control group, to which dimethylacetamide and tartaric acid in a ratio of 2/3 were given in a quantity of 1 ml/kg, was treated as with the test group. Upon the addition of the aggregation inducer, a maximum transmittance change was read to find a platelet aggregation change in %.

Another assay deals with right atrium. The assay is described as follows: Extracted heart, right atrium sample (heart rate). Set-up: species or system Hartley guinea pigs. Particulars: Cavia porcellus, read-out: Heart Rates. An excerpt: (§1) Stunned by receving a blow on the heads, Hartley guinea pigs (weighing 300-400 g) were fixed on the back regions to extract their hearts. […] This vessel was previously filled with a Krebs-Henseleit solution and the above gaseous mixture continued to be supplied thereto during preparing the sample.
(§2) In order to prepare the sample, the right and left atria were cut out of the ventricular muscule along the atriventricular sulcus from the center of both the right and left auricles.
The contraction of the sample was recorded on a recorder through an FD pickup simultaneously with counting and recording the beat with an instantaneous cardiograph unit.

Another assay has as its system left atrium. As to the kind of experiment: Extracted heart, left atrium sample (systole force, electrically stimulated). Set-up: species or system Hartley guinea pigs. Particulars: Cavia porcellus, read-out: Systole Forces.
Source text: as §1, §2
While a platinum bipolar electrode attached to the above-mentioned micro wire clamp was in contact with the atrium, stimuli were given to it by 1-Hz, 2-msec. and 10-V rectangular waves derived through an electrical stimulator and an isolator to record the movement of said atrium with an FD pickup connected with it through silk thread.

The subject of assay [3] is Extracted Guinea Pigs' Aortae. As to the kind of experiment: Relaxation of extracted thoracic aorta contracted by KCl or NE. Set-up: species or system Hartley guinea pigs. Particulars: Cavia porcellus. The text has this: Stunned by receiving a blow on the head, Hartley guinea pigs (weighing 300-500 g) were fixed at the back regions, and the thoracic aortae were then extracted to prepare helical samples, each ca. 2 mm in width and ca. 25 mm in length. Each sample was suspended in a Magnus tube under a load of ca. 1 g and connected at the upper end with an FD pickup by means of silk thread to record its isometric tension change on a recorder.
Prior to initiating the experiment, the sample was allowed to stand for 60 to 90 minutes, during which the Krebs-Henseleit solution was replaced by a new one at an interval of 20 to 30 minutes. […] Finally, papaverine was additionally provided to regulate the final concentration to 2 x 10- ^5g/ml, thereby observing and recording what relaxing reaction took place.
The state stabilized by the addition of KCI or NE was defined as a 100% relaxation rate, on the basis of which what reaction took place at each concentration was relatively estimated.

The target in the next assay is aldose reductase (Rattus norvegicus, UniProt P07943). The assay is described as follows: Action on aldose reductase inhibition (method of Kador et al.). The note with it: 50 % inhibition of aldose reductase. The assay is classed as biochemical. The text has this: Chem.", Vol. 8, page 81 (1978) to detrermine how much they inhibited aldose reductase.
Note that IC50 is an index to the 50 % inhibition of aldose reductase.

For another assay, the system named is poikilocytes. The assay is described as follows: Ex-vivo amelioration of poikilocytes (filtration under pressure of erythrocyte suspension). Particulars: rat. The assay is classed as in vivo. As for the experimental part: (§3) Five minutes after the test compound had been intravenously administered to the tail of a rat, blood was gathered from the descending aorta of the rat which was lightly etherized. Added to this blood was citric acid (3.8% sodium citrate) in a volume ratio of 1/10.
Blood gathered with the addition of citric acid was centrifuged at 4°C and 1500 rpm for 10 minutes. The supernatant fluid was discarded. Added to the residues was physiological saline in an amount of about 1.5 times as large, again followed by 10-minute centrifugation at 4°C and 1500 rpm. The supernatant fluid was discarded. One hundred (100) µl of erythrocytes left upon such procedures repeated twice were diluted with physiological saline to prepare 50 ml of a 0.2 % erythrocyte suspension. This suspension was incubated at 37°C for 5 minutes, cooled down to room temperature and examined to find how much the poikilocytes were ameliorated by the filtration-under-pressure procedures described by F. Katsuraya in "Geriatric Medicine", Vol. 20, pp. 151-156 (1982).
To this end, the suspension sample was passed from a continuous feeder through a Millipore membrane having a mean pore size of […] at a rate of 5 ml/min, during which the pressure on the upstream side of the membrane was measured through a pressure transducer with a pressure amplifier and, at the same time, was recorded on a polygraph chart sheet.

Assay [4] relates to coronary artery bloodstream. As to the kind of experiment: Coronary bloodstream of dogs under anesthesia (i.v.). The assay is classed as in vivo. Particulars: anesthetized dogs, control 8.7±2.1. As for the experimental part: Fully developed, mongrel male and female dogs were each put under anesthesia with sodium pentobarbital and subjected to commissurotomy while artificial respiration was applied to them. The coronary artery bloodstream was determined with an electromagnetic bloodstream probe attached to the ramus circumflexus of the left coronary artery.
Each of the test compounds was administered to the animal through a cannula fixedly inserted into the cephalic vein.

In the next assay the test system is erythrocytes. As to the kind of experiment: Oxygen dissociation of erythrocytes (HEMOX-ANALYZER), ex vivo. The assay is classed as in vivo, rat. Particulars: 10 mg/kg; control mean 31.08.
Source text: as §3
Blood gathered with the addition of heparin was used to determine the oxygen dissociation of the erthro- cytes with HEMOX-ANALYZER.

Setting [5] is: Rattus norvegicus, read-out: IC50 Collagen.
[6] abbreviates: 10^-4(M), right atrium, suppression.
Where [7] appears, read: 10^-5(M), right atrium, suppression.
Setting [8] is: 10^-4(M), left atrium, suppression.
[9] abbreviates: 10^-5(M), left atrium, suppression.
[10] abbreviates: rat PRP, aggregation inducer collagen, read-out: IC50 Collagen.
The mark [11] stands for this setting: 50% relaxation, contraction by KCl 2.5 x 10^-2M, read-out: IC50(M) Contraction by KCl.
Setting [12] is: 50% relaxation, contraction by norepinephrine 10^-6 g/ml, read-out: IC50(M) Contraction by NE.

Molecules are shown by their SMILES. Like-named read-outs stand apart in the source and are kept apart here. Marks after values point to notes of the source that are not given here.

On to `CC(=O)Oc1ccccc1C(=O)O` [Aspirin, reference compound], for which the half-inhibitory concentration (IC50) in the assay on platelet aggregation [1] (setting [5]) came to 210 µM. Further, the “Collagen (10 μM)” value with platelet aggregation [2] (30.0 mg/kg intravenously) was found to be 77%.

As for `CC(C(O)c1ccc(O)cc1)N1CCC(Cc2ccccc2)CC1` (stereo not shown) [B, ifenprodil, reference compound], the inhibition at 100 µM in the assay with right atrium (setting [6]) was more than 20%; in the assay with left atrium (setting [8]), 10 to 20%. Moreover, the inhibition at 10 µM in the assay with right atrium (setting [7]) was more than 20%; with left atrium (setting [9]), 0%.

As to `COc1cc(/C=C/C(=O)N2CCN(CC(=O)N3CCCC3)CC2)cc(OC)c1OC` [Cinepazid, reference compound], the figures for the IC50 in assay [3] (read-out: IC50(M) Contraction by KCl) and in assay [3] (read-out: IC50(M) Contraction by NE) were 0.002 M and 0.001 M, respectively.

Regarding `O=C1NC(=O)[C@@]2(C[C@@H](C(=O)N3CCC(Cc4ccccc4)CC3)Oc3ccc(F)cc32)N1` [Compound 1], the 50% inhibitory concentration (IC50) was 0.31 µM at aldose reductase, 630 µM in the assay on platelet aggregation [1] (setting [10]), 1.3e-06 M in assay [3] (setting [11]) and 1e-05 M in assay [3] (setting [12]). In addition, the “ADP (1 x 10^-6M)” value in the assay with platelet aggregation [2] (1.0 mg/kg intravenously, inducer ADP 1 x 10^-6M) is 44* %. Also, the “Collagen (10 μM)” value in the assay on platelet aggregation [2] (1.0 mg/kg intravenously) is given as 57%. For the same compound, the Amelioration in % with poikilocytes (0.1 mg/kg intravenously) came to 29.3%. The inhibition at 100 µM with right atrium (setting [6]) was 0%; in the assay with left atrium (setting [8]) it was 10 to 20%. Besides, the inhibition at 10 µM in the assay on right atrium (setting [7]) and with left atrium (setting [9]) was 0% throughout. In assay [4] (0.1 mg/kg i.v.), the “C.B.S. (coronary bloodstream)” value came out at 9.6±6.9.

On to `O=C1NC(=O)[C@@]2(C[C@@H](C(=O)N3CCN(C(c4ccccc4)c4ccccc4)CC3)Oc3ccc(F)cc32)N1` [Compound 2, 4-diphenylmethyl-1-{(2S,4S)-6-fluoro-2,5'-dioxospiro[chromane-4,4'-imidazolidine]-2-carbonyl}piperazine], for which the concentration for half-maximal inhibition (IC50) against aldose reductase is 0.045 µM; in the assay with platelet aggregation [1] (rat PRP, aggregation inducer ADP, read-out: IC50 ADP) it was 770 µM; with platelet aggregation [1] (setting [10]), 430 µM; in assay [3] (setting [11]), 0.00012 M; in assay [3] (setting [12]), 1e-06 M. This compound also displayed an Amelioration in % with poikilocytes (1.0 mg/kg intravenously) of 37.9%. Besides, in the assay with erythrocytes, the “P50 in mmHg Mean” value came to 32.58 mmHg. Besides, the values for the inhibition at 100 µM with right atrium (setting [6]) and in the assay with left atrium (setting [8]) were more than 20% and 10 to 20%, respectively. Moreover, the figures for the inhibition at 10 µM with right atrium (setting [7]) and with left atrium (setting [9]) were 10 to 20% and 0%, respectively. For the same compound, the “C.B.S. (coronary bloodstream)” value in assay [4] (1.0 mg/kg i.v.) is given as 13.8±2.9.

Regarding `O=C1NC(=O)[C@@]2(C[C@@H](C(=O)N3CCN(CC=Cc4ccccc4)CC3)Oc3ccc(F)cc32)N1` [Compound 3, 4-cinnamyl-1-{(2S,4S)-6-fluoro-2',5'-dioxospiro[chromane-4,4'-imidazolidine]-2-carbonyl}piperazine], the IC50 is 0.41 µM against aldose reductase, 370 µM in the assay with platelet aggregation [1] (setting [10]), more than 0.001 M in assay [3] (setting [11]) and more than 0.001 M in [3] (setting [12]). The inhibition at 100 µM with right atrium (setting [6]) is more than 20%; with left atrium (setting [8]) it was 10 to 20%. Further, the inhibition at 10 µM with right atrium (setting [7]) is 10 to 20%; with left atrium (setting [9]), 0%.

Turning to `CC(C)NCC(O)COc1cccc2ccccc12` (stereo not shown) [Control A, propranolol, reference compound], the inhibition at 10 µM with right atrium and with left atrium was more than 20% throughout. Moreover, the inhibition at 100 µM in the assay with right atrium and in the assay on left atrium was more than 20% in each case.

Consider `COc1ccc2c(c1)c(CC(=O)O)c(C)n2C(=O)c1ccc(Cl)cc1` [Indomethacin, reference compound], for which the half-maximal inhibitory concentration (IC50) in the assay on platelet aggregation [1] (setting [5]) came out at 68 µM. Moreover, the “Collagen (10 μM)” value with platelet aggregation [2] (30.0 mg/kg intravenously) is 49%.
